# Test results as given in US12691070B2, “Cationic lipids and preparation method thereof” (RiboX Therapeutics HK Limited, priority 2023, dated 2026).
# What was measured:
# RAW 264.7 cells [1] = experiment: In vitro toxicity (CellTiter-Glo cell viability), RAW 264.7; assay type: cell-based; details: cirRNA (SEQ ID NO: 1) LNPs; RAW 264.7 cells;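 further: percent of untreated cells luminescence signal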
# How it was run: (§1)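 First, cells receive RNA-LNPs at 1 μg/mL by transfection. After 72 hours, CellTiter-Glo reagent is added per kit protocol. Luminescence is then read and converted to cell viability.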
# RAW 264.7 cells [2] = experiment: In vitro expression of firefly-luciferase, RAW 264.7; assay type: cell-based; details: cirRNA (SEQ ID NO: 1) LNPs; firefly-luciferase luminescence; RAW 264.7 cells
# How it was run: (§2)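 Both cell lines receive RNA-LNPs carrying firefly-luciferase RNA at 100 ng/mL. Lysis follows washing at 72 h post-transfection, and luciferase activity is then quantified on a luminometer using a commercial luciferase assay reagent.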
# BALB/C mice = experiment: In vivo expression, whole-body luminescence (IVIS); details: cirRNA (SEQ ID NO: 1) LNPs, BALB/C mice
# Description: 6-8 week old, female BALB/C mice were injected with 0.05 mg*kg-1 of RNA-LNPs encoding for firefly-luciferase by intravenous injection. At 6 hours post injection, animals were intraperitoneally injected with 15 mg/ml of Luciferin substrate and whole-body luminescence was determined by a bioluminescent in vivo imaging system (IVIS).
# [3] = LNP size and polydispersity index (PDI) by dynamic light scattering; assay type: physicochemical; details: LNP with cirRNA (SEQ ID NO: 1); for Size: in nm (unit assumed)
# How it was run: (§3)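 LNPs of ionizable lipid/DSPC/cholesterol/DMG-PEG 2000 (50:10:38.5:1.5) made by microfluidic mixing of luciferase circRNA or mRNA in pH 4.5 acetate with lipids in ethanol (3:1, 12 ml/min), ionizable lipid:nucleotide 15 or 6, then dialyzed against PBS. Size, PDI (DLS) and zeta potential on Zetasizer; encapsulation by Ribogreen ± Triton X-100.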
# [4] = RNA encapsulation efficacy by Quant-IT Ribogreen kit; assay type: physicochemical; details: LNP with cirRNA (SEQ ID NO: 1)
# How it was run: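 Ribogreen read-out: encapsulation = 100% − (signal of intact RNA-LNPs / signal with Triton X-100). Particles: ionizable lipid:DSPC:Chol:DMG-PEG2000 50:10:38.5:1.5, ionizable lipid:ribonucleotide 15 or 6, final lipid 1.5–6 mM, PBS-dialyzed.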
# Hep G2 cells [5] = experiment: In vitro expression of firefly-luciferase, Hep G2; assay type: cell-based; details: cirRNA (SEQ ID NO: 1) LNPs; firefly-luciferase luminescence; Hep G2 cells
# How it was run: as §2
# [6] = LNP zeta potential (Zetasizer); assay type: physicochemical; details: LNP with cirRNA (SEQ ID NO: 1)
# How it was run: as §3
# Hep G2 cells [7] = experiment: In vitro toxicity (CellTiter-Glo cell viability), Hep G2; assay type: cell-based; details: cirRNA (SEQ ID NO: 1) LNPs; Hep G2 cells;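 further: percent of untreated cells luminescence signal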
# How it was run: as §1
SMILES,In vitro Viability RAW (RAW 264.7 cells [1]) [%],In vitro Expression RAW (RAW 264.7 cells [2]),In vivo Expression (Whole Body) (BALB/C mice),PDI [3],Size [3],Encapsulation Efficiency % [4] [%],In vitro Expression HepG2 (Hep G2 cells [5]),Zeta (mV) [6] [mV],In vitro Viability HepG2 (Hep G2 cells [7]) [%]
CCCCCCCCCCC(CCCCCCCC)COC(=O)CCCCCN(CCCCCC(=O)OCC(CCCCCCCC)CCCCCCCCCC)CCOC(=O)NCCN1CCOCC1 (stereo not drawn) [Lipid 174],92,1.30E+04,5.15E+07,0.0911,57.29,89,1.56E+05,−4.35,89
CCCCCCCCC(CCCCCC)C(=O)OCCCCCCCCN(CCCCCCCCOC(=O)C(CCCCCC)CCCCCCCC)CCCOC(=O)NCCN1CCC1 (stereo not drawn) [Lipid 382],84,5.69E+04,4.22E+06,0.2452,145.3,94,3.97E+05,4.75,42
CCCCCCCCCCCOC(=O)CCCCCN(CCCCCCCCOC(=O)C(CCCCCC)CCCCCCCC)CCOC(=O)NCCN1CCN(C)CC1 (stereo not drawn) [Lipid 222],87,8.85E+04,1.59E+06,0.4109,98.73,97,1.63E+06,26.75,42
CCCCCCCCC(CCCCCCCC)OC(=O)CCCCCCCN(CCCCCCCCOC(=O)C(CCCCCC)CCCCCCCC)CCCOC(=O)NCCN1CCC1 (stereo not drawn) [Lipid 353],40,3.38E+03,1.48E+06,0.2483,116.6,95,4.17E+04,4.334,37
CCCCCCCCCCC(CCCCCCCC)COC(=O)CCCCCN(CCCCCC(=O)OCC(CCCCCCCC)CCCCCCCCCC)CCOC(=O)NCc1ncc[nH]1 (stereo not drawn) [Lipid 171],88,2.44E+05,5.09E+07,0.1297,55.9,77,3.04E+05,−5.824,97
"CCCCCCCCC(CCCCCCCC)OC(=O)CCCCCCCN(CCCCCCCCOC(=O)C(CCCCCC)CCCCCCCC)CCOC(=O)NCCN1CCCCC1 (stereo not drawn) [Lipid 149, 8-((8-(heptadecan-9-yloxy)-8-oxooctyl)(2-(((2-(piperidin-1-yl)ethyl)carbamoyl)oxy)ethyl)amino)octyl 2-hexyldecanoate]",100,1.91E+04,6.07E+07,0.02962,71.14,88,2.08E+05,9.196,123
"CCCCC/C=C\C/C=C\CCCCCCCCN(CCCCCCCC(=O)OC(CCCCCCCC)CCCCCCCC)CCOC(=O)NCCN1CCN(C)CC1 [Lipid 135, heptadecan-9-yl 8-((2-(((2-(4-methylpiperazin-1-yl)ethyl)carbamoyl)oxy)ethyl)((9Z,12Z)-octadeca-9,12-dien-1-yl)amino)octanoate]",103,9.80E+04,3.51E+07,0.1211,150.9,100,2.30E+06,8.469,91
CCCCCCCCCCCOC(=O)CCCCCN(CCCCCCCC(=O)OC(CCCCCCCC)CCCCCCCC)CCOC(=O)NCCN1CCCC1 [Lipid 164],86,9.56E+04,7.11E+07,0.2218,76.41,75,3.92E+06,3.42,74
CCCCCCCCC(CCCCCC)C(=O)OCCCCCCCCN(CCCCCCCCOC(=O)C(CCCCCC)CCCCCCCC)CCCNCCN(C)C (stereo not drawn) [Lipid 384],88,3.15E+05,1.15E+07,0.2423,135.9,96,2.57E+06,8.213,81
CCCCC/C=C\C/C=C\CCCCCCCCN(CCCCCCCC(=O)OC(CCCCCCCC)CCCCCCCC)CCCOC(=O)NCCN1CCCC1 [Lipid 277],121,8.13E+06,7.29E+07,0.2188,76.75,92,1.17E+07,−0.6853,89
CCCCCCCCCC(=O)OCCCCCCCN(CCCCCCCCOC(=O)C(CCCCCC)CCCCCCCC)CCOC(=O)NCCCN1CCCCC1 (stereo not drawn) [Lipid 358],83,9.81E+03,2.29E+07,0.1606,81.33,87,1.88E+05,1.109,121
CCCCCCCCCC(=O)OCCCCCCCCN(CCCCCCCCOC(=O)CCCCCCCCC)CCOC(=O)NCCN1CCCC1 [Lipid 209],95,1.08E+02,6.62E+05,0.1886,86.68,93,3.81E+04,13.53,96
"CCCCCCCCCCCOC(=O)CCCCCN(CCCCCCCC(=O)OC(CCCCCCCC)CCCCCCCC)CCOC(=O)NCCN(C)C [Lipid 158, heptadecan-9-yl 2-methyl-6-oxo-10-(6-oxo-6-(undecyloxy)hexyl)-7-oxa-2,5,10-triazaoctadecan-18-oate]",0,1.37E+04,1.62E+07,0.2315,97.72,72,1.24E+06,6.058,64
CCCCCCCCCC(=O)OCCCCCCCN(CCCCCCCCOC(=O)C(CCCCCC)CCCCCCCC)CCCOC(=O)NCCCN(CC)CC (stereo not drawn) [Lipid 361],4,2.97E+03,1.10E+06,0.438,91.91,88,1.62E+05,8.107,114
